Data published in US20210139902A1, “RNAI TARGET GENE THAT IS HIGHLY LETHAL TO APHIDS AND USE THEREOF” (CAS Center For Excellence in Molecular Plant Sciences, priority 2018, published 2021).

Tested on: green peach aphid
Test: Field test of green peach aphid: dsRNA spray compared with imidacloprid
Format: in vivo, Myzus persicae
Conditions: dsRNA 300 ng/μl in water, 300 μl per plant, imidacloprid 10,000 times solution
Excerpt: Control effect (%)=(1−CK0×PT1/CK1×PT0)×100
wherein PT0: the number of insects before drug administration in the treatment area; PT1: the number of insects after drug administration in the treatment area; • CK0: the number of insects before drug administration in the control area; CK1: the number of insects after drug administration in the control area.
the dropping rate of insect population (%)=[(number of insects before drug administration−number of insects after drug administration)/number of insects before drug administration]×100
1. Radish seedlings of 12-15 days, inoculated with 100 insects, stabilized for 1 day, sprayed with dsRNA the next day.
2. The concentration of dsRNA used for spraying was 300 ng/μl. The synthesized dsRNA was dissolved in water and sprayed 300 μl per plant.
3. The concentration of imidacloprid was 10,000 times solution (Germany Bayer Emerald 70% imidacloprid 3 g, water dispersible granules), sprayed 300 μl per plant.
4. The experiment method: spray treatment, 4 replicates for each treatment.

## O=[N+]([O-])NC1=NCCN1Cc1ccc(Cl)nc1 [Imidacloprid, imidacloprid]
1 d
  Field test of green peach aphid: Control effect, 1 d: 70.96 ± 4.25 Cc %
1 d, radish seedlings, 100 insects
  Field test of green peach aphid: the dropping rate of insect population, 1 d: 37.33 ± 9.65 Bb %
3 d
  Field test of green peach aphid: Control effect, 3 d: 93.78 ± 3.14 Cb %
3 d, radish seedlings, 100 insects
  Field test of green peach aphid: the dropping rate of insect population, 3 d: 75.83 ± 15.25 Bb %
5 d
  Field test of green peach aphid: Control effect, 5 d: 97.37 ± 1.88 Bb %
5 d, radish seedlings, 100 insects
  Field test of green peach aphid: the dropping rate of insect population, 5 d: 84.35 ± 9.60 Bb %
